{"source": "patent US20230023026A1", "about": "“METHODS FOR TREATMENT OF DAMAGED BILIARY DUCT” (Mor Research Applications Ltd., priority 2020, published 2023)", "key": {"Mdr2−/− mice": {"tested_on": "Mdr2−/− mice", "assay": "In vivo treatment of Mdr2−/− mice with L-NAC in drinking water, liver histology (H&E, Sirius Red)", "set-up": "species or system mouse", "details": "4-month old Mdr2−/− mice, 30 gr/L L-NAC in drinking water for 3 weeks", "excerpt": "The homozygote, multidrug resistance protein 2 knockout mouse (Mdr2KO or Mdr2^−/−, also known as Abcb4^−/−) lacks the protein MDR2, a canalicular phospholipid flippase that causes a complete absence of phosphatidylcholine in bile. Mdr2^−/− mice are a well-established model for biliary ducts diseases resulting from, or associated with, highly toxic bile. Multidrug resistance P-glycoproteins, Mdr2 in mouse and MDR3 in human, are choline-containing phospholipid phosphatidylcholine (PC) transporters. In the liver, Mdr2/MDR3 are involved in the translocation of PC from the inner leaflet to the outer leaflet of the canalicular membrane of hepatocytes for direct extraction by bile acids. Bile acids and PC are essential components in the bile that form bile acid containing micelles to thereby reduce the toxic detergent activity of bile acid for hepatocytes and cholangiocytes and to establish physiological bile flow. Mdr2 knockout mouse successively develops liver inflammation, hepatic fibrosis, and hepatocellular carcinoma (HCC) at late ages. The pathogenesis in Mdr2^−/− mice is commonly considered to be caused by increased levels of free toxic bile acids in the biliary canaliculus, which damages hepatocytes and cholangiocytes and provokes liver inflammation. This cholangiopathy is similar to human PSC. The wild type and Mdr2 knockout mice used in embodiments described herein are male and female mice of FVB genetic background (FVB/N and FVB/Mdr2^−/− mice, respectively). All mice were maintained under specific pathogen-free conditions with a 12-hour-light-dark cycle and permitted ad libitum consumption of water and a standard chow. FVB/Mdr2^−/− mice are reproducible model of spontaneously progressive chronic biliary liver disease associated with fibrosis, with histological lesions closely resembling human PSC. Though the Mdr2^−/− mouse is well-established for the investigation of PSC, little is known about EHBD injury in this model. 1. […] The liver repair effect in Mdr2^−/− mice treated with L-NAC was assessed. […]"}, "[1]": {"tested_on": "EHBD explants from Mdr2−/− mice", "assay": "Ex-vivo bile duct explant culture of Mdr2−/− EHBDs treated with L-NAC (H&E, K19/ZO-1 immunostaining, DAPI)", "assay_type": "cell-based, mouse", "method": "Intact extrahepatic bile ducts (EHBDs) from 2-week (N≥12) and 16-week (N≥5) old mice were dissected, placed in ice-cold V-7 cold preservation buffer (Vitron) followed by incubation in cholangiocyte medium (also termed herein “BEC medium”), according to a modification of the protocol described by Karjoo and Wells (Isolation of neonatal extrahepatic cholangiocytes. J. Vis. Exp. 2014). Ducts were placed on roller inserts, treated with N-Acetyl-L-cysteine (L-NAC) and other compounds as noted below, and cultured in a high oxygenation Vitron Dynamic Organ Culture Incubator at 37° C., in 95% O2 and 5% CO2, for 1-3 days. In the incubator (designed to optimally incubate tissue slices), the explants rotated and were exposed to alternating periods in medium and 95% oxygen/5% CO2. Thin slices of tissue remained viable without visible damage or evidence of necrosis or apoptosis for at least 3 days.\n1. Histological H&E staining of cells of ducts tissue was performed according to standard staining protocol, using two dyes: the basic dye haemotoxylin and the acidic dye eosin. Eosin reacted with cationic or basic components (also termed “acidophilic”) and stained red or pink acidophilic structures (e.g., cytoplasmic proteins, intracellular membranes, and extracellular fibers). Haematoxylin, reacted with anionic or acidic components (also termed “basophilic”) in cells and, when used in combination with aluminum ions (Al^3+), stained purplish blue basophilic structures (e.g., the nucleic acids in the nucleus and parts of the cytoplasm that contain RNA (e.g., ribosomes and the rough endoplasmic reticulum)). EHBDs were fixed in 4% paraformaldehyde (PFA) and embedded in paraffin, then sections (4-μm thick) were cut and stained with H&E.\n3. Immunostaining or immunohistochemistry (IHC), which combines anatomical, immunological and biochemical techniques, was conducted in order to image discrete components in EHBDs tissues by using appropriately labeled antibodies that bind specifically to their target antigens in situ Immunohistochemistry made it possible to visualize the high-resolution distribution and localization of specific cellular components within cholangiocytes and within their proper histological context Immunostaining methodology included two main steps: sample preparation and sample staining. In the preparation step, ducts were fixed at 4% PFA for the preservation of cell morphology and tissue architecture. Thin sections of tissues (4-μm thick) attached to individual glass slides where then immunostained as described e.g., in Dipaola et al., 2013 (Hepatology 58:1486-1496, 2013), using antibodies against the cholangiocyte marker keratin 19 (K19, 1:10, Developmental Studies Hybridoma Bank, TROMAIII) and ZO-1 tight junction protein (anti-ZO1 antibody ab96587; Abcam).\n4. […]"}}, "note": "Entries after “also recorded” stand apart in the source; their conditions may differ.", "data": [{"smiles": "CC(=O)N[C@@H](CS)C(=O)O", "note": "[L-NAC, N-acetyl-L-cysteine]", "values": [{"measurement": "inflammatory cell infiltration around the portal areas (H&E)", "setting": "Mdr2−/− mice", "value": "reduction in inflammatory cell infiltration"}, {"measurement": "portal fibrosis in liver (H&E)", "setting": "Mdr2−/− mice", "value": "reduced portal fibrosis"}, {"measurement": "liver fibrosis (Sirius Red staining)", "setting": "Mdr2−/− mice; vs untreated mouse", "value": "reduction in liver fibrosis"}, {"measurement": "histological damage, including coarse chromatin and nuclear crowding (H&E)", "setting": "[1]; EHBDs from 2-week old Mdr2−/− mice, 5 μM L-NAC in fresh BEC medium, 24 hours", "value": "improved"}, {"measurement": "expression of the tight junction protein ZO-1 (immunostaining)", "setting": "[1]; EHBDs from 2-week old Mdr2−/− mice, 5 μM L-NAC, 24 hours", "value": "restored apical tight junction expression"}, {"measurement": "restoration of the apical tight junction ZO-1 (immunostaining)", "setting": "[1]; EHBDs from 16-week old Mdr2−/− mice, 5 μM L-NAC, 24 hours", "value": "not seen; also recorded: poor ZO-1 restoration"}, {"measurement": "duct architecture / morphology (H&E)", "setting": "[1]; Mdr2−/− EHBD explants, L-NAC and fresh BEC media for 24 hours", "value": "improved duct architecture with a more normal appearing columnar epithelium; also recorded: substantial morphological recovery"}]}]}
